Each block holds one compound with its values, some of them ahead of it. The source made the active and inactive calls.
Legend:
[1] = target: T1, Apoptotic protease-activating factor 1 (Homo sapiens, UniProt O14727); format: functional
T1 sequence (O14727 whole entry): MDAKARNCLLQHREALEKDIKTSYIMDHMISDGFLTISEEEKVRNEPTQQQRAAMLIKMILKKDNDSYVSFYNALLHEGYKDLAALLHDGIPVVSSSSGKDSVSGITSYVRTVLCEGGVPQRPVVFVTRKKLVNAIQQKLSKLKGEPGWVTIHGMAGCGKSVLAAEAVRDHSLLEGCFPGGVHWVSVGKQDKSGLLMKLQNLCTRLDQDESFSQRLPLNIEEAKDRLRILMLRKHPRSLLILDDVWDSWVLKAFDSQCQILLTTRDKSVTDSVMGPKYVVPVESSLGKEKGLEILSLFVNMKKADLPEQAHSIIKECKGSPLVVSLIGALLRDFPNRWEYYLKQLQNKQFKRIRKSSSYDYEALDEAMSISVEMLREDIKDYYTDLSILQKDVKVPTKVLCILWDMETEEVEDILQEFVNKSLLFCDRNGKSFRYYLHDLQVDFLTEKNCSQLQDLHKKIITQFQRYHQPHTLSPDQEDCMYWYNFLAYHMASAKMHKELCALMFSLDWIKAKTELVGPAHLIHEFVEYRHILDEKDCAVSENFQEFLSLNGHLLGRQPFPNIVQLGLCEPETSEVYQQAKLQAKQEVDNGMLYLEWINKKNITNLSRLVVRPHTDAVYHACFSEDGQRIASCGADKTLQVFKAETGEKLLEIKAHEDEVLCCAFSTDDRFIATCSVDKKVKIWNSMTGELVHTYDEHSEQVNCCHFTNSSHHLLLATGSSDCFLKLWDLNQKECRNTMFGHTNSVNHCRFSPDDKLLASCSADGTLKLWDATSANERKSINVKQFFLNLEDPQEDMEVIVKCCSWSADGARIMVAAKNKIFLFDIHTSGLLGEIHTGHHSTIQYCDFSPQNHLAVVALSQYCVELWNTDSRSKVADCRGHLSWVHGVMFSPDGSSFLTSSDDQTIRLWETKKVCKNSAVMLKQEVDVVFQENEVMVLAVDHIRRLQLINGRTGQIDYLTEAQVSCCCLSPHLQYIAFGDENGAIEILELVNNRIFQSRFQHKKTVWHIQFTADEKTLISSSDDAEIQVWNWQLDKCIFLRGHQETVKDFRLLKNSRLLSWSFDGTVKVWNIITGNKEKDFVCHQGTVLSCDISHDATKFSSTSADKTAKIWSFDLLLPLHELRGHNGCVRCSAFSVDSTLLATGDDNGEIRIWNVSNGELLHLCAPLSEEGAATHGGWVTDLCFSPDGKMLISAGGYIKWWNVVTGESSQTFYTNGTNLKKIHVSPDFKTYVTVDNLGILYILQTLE

[2] = target: Dual specificity tyrosine-phosphorylation-regulated kinase 1A (Rattus norvegicus, UniProt Q63470); format: biochemical, Homo sapiens
Hexokinase HKDC1 = target: T2, Hexokinase HKDC1 (Homo sapiens, UniProt Q2TB90); experiment: HKDC1 hexokinase inhibitors, dose response, biochemical, W721R variant (AID 504729); format: functional
T2 sequence (Q2TB90 whole entry): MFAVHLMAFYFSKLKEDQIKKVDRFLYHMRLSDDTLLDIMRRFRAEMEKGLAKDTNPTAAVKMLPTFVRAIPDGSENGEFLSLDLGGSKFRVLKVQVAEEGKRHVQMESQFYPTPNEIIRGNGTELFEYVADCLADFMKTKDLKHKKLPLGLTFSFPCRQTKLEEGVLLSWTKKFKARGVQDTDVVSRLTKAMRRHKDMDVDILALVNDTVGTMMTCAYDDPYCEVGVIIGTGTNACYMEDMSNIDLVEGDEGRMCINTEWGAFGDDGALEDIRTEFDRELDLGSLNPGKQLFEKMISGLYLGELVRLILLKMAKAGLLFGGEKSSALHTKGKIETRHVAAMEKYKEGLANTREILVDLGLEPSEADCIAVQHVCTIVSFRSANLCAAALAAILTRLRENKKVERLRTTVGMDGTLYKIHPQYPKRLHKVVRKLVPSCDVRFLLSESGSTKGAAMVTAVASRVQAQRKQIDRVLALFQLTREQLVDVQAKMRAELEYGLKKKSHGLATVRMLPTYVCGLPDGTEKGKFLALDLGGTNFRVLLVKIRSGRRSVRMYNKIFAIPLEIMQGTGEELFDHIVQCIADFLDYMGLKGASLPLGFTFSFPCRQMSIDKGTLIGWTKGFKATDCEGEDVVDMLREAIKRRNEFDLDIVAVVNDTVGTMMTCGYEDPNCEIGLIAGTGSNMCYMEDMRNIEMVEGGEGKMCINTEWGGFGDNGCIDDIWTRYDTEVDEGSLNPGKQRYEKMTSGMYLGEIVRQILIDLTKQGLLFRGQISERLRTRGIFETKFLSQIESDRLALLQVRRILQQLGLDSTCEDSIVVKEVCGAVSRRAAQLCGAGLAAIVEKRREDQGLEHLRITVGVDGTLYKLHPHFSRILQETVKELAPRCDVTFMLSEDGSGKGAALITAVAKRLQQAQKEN

HEK293 = experiment: NOD2 signaling inhibitors in MDP-stimulated cells, cell-based, uHTS, luminescence (AID 2001); format: functional; conditions: Homo sapiens
[3] = target: Homeodomain-interacting protein kinase 2 (Homo sapiens, UniProt Q9H2X6); format: functional;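 also: measured within a kinome-wide kinase profiling panel, HIPK2 being one panel member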
[4] = target: Receptor-type tyrosine-protein kinase FLT3 (Homo sapiens, UniProt P36888); format: functional;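 also: FLT3 was tested as one member of a kinome-wide kinase panel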
[5] = target: Dual specificity mitogen-activated protein kinase kinase 1 (Homo sapiens, UniProt Q02750); experiment: Navigating the Kinome. Panel member name: MAP2K1; format: functional
[6] = target: Serine/threonine-protein kinase Chk2 (Homo sapiens, UniProt O96017); format: functional;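 also: CHEK2 entry within a kinome-wide screening panel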
[7] = target: RAC-alpha serine/threonine-protein kinase (Homo sapiens, UniProt P31749); format: functional;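 also: AKT1 affinity measured as one member of a kinome-wide kinase profiling panel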
[8] = target: Mitogen-activated protein kinase kinase kinase 20 (Homo sapiens, UniProt Q9NYL2); format: functional
Insulin receptor = Insulin receptor (Homo sapiens, UniProt P06213); format: functional;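 also: insulin receptor kinase tested as one member of a kinome-wide kinase panel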
[9] = target: Dual specificity protein kinase CLK4 (Homo sapiens, UniProt Q9HAZ1); format: functional
[10] = RKO cell viability reduction, dose response, CellTiter-Glo luminescence (AID 1117322); format: functional

Chain of RAC-alpha serine/threonine-protein kinase (P31749 whole entry): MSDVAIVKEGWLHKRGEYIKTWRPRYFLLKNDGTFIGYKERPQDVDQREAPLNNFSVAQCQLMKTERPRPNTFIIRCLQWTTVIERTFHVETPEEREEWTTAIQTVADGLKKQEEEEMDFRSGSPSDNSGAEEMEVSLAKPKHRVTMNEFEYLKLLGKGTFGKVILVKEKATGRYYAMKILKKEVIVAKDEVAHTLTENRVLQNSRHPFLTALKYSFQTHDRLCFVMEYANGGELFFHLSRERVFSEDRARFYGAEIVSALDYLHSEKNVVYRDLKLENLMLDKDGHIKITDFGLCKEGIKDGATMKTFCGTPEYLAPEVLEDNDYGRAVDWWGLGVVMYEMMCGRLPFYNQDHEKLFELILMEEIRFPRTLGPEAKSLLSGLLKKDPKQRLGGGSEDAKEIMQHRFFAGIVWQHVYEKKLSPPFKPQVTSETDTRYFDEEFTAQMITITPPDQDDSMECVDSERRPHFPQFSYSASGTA
Chain of Insulin receptor (P06213 28-758 limits assumed): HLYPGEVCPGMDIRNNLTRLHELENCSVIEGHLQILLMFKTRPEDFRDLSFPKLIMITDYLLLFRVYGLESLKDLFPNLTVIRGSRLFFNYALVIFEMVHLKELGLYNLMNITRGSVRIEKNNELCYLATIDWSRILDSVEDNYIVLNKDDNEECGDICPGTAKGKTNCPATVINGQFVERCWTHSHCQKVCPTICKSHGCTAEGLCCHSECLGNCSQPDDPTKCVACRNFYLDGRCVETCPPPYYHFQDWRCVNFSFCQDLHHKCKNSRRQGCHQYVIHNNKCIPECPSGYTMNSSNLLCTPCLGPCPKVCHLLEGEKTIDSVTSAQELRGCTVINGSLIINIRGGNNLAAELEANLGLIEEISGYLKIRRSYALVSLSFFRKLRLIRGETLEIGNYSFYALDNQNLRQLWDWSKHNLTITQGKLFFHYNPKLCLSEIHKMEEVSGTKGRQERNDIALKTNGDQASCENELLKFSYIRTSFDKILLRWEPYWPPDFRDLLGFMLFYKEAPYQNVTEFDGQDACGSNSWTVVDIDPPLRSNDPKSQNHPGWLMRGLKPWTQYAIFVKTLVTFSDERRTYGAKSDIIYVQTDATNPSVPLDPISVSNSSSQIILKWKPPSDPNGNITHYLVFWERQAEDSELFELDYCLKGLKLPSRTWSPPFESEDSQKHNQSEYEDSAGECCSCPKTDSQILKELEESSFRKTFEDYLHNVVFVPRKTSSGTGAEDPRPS
Chain of Insulin receptor (P06213 763-1382 limits assumed): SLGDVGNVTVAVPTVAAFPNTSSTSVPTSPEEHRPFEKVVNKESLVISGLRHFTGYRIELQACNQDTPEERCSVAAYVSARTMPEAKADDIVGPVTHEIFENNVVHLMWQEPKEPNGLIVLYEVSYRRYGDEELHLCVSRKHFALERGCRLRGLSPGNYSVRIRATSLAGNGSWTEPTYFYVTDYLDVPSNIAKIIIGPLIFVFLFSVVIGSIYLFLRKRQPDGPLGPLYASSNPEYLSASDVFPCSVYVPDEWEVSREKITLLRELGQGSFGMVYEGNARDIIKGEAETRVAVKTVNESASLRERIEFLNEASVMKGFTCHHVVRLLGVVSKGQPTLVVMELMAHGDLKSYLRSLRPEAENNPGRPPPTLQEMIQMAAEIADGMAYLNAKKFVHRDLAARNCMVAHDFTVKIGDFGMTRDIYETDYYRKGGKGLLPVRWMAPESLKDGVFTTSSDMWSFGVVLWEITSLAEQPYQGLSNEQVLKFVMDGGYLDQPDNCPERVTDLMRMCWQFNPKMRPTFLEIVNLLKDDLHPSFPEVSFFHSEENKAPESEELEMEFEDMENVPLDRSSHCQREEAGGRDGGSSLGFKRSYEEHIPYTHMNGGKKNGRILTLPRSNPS
Chain of Mitogen-activated protein kinase kinase kinase 20 (Q9NYL2 whole entry): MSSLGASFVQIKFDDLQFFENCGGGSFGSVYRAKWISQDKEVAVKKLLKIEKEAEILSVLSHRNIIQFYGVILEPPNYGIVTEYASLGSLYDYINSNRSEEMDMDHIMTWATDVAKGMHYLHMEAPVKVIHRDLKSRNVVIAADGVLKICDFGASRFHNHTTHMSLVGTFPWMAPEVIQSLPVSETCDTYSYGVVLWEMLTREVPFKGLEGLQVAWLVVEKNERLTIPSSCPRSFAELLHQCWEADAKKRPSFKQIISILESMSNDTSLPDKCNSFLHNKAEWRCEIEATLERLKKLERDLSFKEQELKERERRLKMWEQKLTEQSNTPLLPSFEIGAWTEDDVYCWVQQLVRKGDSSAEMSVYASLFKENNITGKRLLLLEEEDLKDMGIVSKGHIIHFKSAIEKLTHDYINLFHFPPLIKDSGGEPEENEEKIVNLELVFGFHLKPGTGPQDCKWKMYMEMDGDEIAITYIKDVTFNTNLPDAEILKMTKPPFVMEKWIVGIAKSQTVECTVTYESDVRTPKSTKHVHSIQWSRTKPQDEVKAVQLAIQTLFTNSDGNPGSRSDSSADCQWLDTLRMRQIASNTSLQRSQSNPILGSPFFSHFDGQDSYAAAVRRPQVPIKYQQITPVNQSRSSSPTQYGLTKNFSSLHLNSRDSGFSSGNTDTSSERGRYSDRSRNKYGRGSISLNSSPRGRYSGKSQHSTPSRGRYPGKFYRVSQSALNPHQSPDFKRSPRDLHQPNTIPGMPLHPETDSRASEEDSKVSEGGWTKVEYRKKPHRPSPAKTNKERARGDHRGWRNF
Chain of Receptor-type tyrosine-protein kinase FLT3 (P36888 whole entry): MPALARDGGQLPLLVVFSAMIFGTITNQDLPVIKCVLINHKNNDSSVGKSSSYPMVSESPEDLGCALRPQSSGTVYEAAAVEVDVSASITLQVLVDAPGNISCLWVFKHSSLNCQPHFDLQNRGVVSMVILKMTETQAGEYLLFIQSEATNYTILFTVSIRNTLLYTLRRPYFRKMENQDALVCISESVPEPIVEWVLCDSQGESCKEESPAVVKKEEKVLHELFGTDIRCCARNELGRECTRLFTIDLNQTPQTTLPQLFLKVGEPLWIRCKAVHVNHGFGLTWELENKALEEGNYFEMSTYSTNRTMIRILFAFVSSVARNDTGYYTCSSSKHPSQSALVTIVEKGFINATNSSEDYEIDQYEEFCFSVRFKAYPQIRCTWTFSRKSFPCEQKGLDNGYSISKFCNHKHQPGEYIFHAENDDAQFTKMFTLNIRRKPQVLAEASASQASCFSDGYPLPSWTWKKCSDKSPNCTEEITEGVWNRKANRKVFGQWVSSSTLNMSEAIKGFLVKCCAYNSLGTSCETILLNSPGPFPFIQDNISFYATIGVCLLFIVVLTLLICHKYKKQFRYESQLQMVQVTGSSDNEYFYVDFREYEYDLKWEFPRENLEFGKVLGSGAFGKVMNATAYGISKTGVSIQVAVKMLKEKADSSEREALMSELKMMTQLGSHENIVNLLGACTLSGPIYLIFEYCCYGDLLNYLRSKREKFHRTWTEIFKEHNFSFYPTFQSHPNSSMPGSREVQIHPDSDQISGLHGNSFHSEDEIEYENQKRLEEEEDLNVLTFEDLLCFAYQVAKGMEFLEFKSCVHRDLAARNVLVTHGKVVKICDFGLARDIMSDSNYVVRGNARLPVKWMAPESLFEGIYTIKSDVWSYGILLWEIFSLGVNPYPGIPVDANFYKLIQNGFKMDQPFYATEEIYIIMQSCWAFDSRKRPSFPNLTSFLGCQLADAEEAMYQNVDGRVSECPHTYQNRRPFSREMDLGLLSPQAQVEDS
Chain of Serine/threonine-protein kinase Chk2 (O96017 whole entry): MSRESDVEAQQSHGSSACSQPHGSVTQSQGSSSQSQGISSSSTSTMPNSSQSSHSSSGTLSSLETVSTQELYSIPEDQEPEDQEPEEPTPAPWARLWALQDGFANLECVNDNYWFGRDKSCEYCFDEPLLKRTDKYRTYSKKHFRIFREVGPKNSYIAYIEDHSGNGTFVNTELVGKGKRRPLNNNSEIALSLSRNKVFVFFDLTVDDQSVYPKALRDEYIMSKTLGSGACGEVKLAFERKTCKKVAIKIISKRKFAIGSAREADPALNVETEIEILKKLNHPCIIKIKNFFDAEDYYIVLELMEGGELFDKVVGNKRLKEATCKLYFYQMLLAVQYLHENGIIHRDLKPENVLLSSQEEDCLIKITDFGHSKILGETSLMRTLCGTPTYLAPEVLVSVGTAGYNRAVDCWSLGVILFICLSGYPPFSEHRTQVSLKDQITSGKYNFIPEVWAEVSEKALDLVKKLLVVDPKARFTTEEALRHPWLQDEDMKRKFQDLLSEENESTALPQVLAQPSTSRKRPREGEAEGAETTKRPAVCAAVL
Chain of Dual specificity mitogen-activated protein kinase kinase 1 (Q02750 whole entry): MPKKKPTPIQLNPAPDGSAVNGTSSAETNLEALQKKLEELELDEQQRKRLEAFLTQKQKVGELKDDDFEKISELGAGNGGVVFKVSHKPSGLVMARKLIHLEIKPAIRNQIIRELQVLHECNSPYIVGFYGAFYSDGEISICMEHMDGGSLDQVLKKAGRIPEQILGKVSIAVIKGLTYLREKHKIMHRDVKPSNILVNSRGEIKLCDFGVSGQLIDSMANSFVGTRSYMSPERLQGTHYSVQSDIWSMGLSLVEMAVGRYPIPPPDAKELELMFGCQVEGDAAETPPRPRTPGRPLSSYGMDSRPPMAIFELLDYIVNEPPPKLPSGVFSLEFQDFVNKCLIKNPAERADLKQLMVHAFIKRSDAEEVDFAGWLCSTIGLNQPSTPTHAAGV
Chain of Dual specificity protein kinase CLK4 (Q9HAZ1 whole entry): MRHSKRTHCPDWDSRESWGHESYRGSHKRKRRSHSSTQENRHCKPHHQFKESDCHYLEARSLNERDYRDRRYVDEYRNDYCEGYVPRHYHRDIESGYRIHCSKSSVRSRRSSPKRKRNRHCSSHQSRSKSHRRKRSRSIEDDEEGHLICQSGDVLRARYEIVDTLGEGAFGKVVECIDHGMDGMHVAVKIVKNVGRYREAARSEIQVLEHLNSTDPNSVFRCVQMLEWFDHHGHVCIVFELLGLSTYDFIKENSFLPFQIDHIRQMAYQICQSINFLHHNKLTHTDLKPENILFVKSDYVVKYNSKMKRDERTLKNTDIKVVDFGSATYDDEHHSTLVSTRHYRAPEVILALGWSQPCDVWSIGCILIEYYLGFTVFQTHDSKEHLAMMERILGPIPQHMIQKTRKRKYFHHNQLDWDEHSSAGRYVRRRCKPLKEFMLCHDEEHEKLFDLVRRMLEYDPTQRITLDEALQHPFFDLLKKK

SMILES: O=C1C=C(N2CCOCC2)c2ccccc2C1=O
IC50 [1]: 1.27 µM (active)
AC50 [2]: 5.14 µM (active)
IC50 (Hexokinase HKDC1): 1.02 µM (active)
IC50 (HEK293): 10.3 µM (inactive)

Ki [3]: > 3.16 µM (inactive)
Ki [4]: > 3.16 µM (inactive)
Ki [5]: > 3.16 µM (inactive)
Ki [6]: > 1.58 µM (inactive)
Ki [7]: > 7.94 µM (inactive)
Ki [8]: > 7.94 µM (inactive)
Ki (Insulin receptor): > 5.01 µM (inactive)
Ki [9]: 2.51 µM (active)
SMILES: N#Cc1ccc2[nH]c(O)c(-c3ccc(CN4CCOCC4)cn3)c2c1 [AZD-1080]

SMILES: CCc1oc2ccccc2c1C(=O)c1cc(Br)c(O)c(Br)c1 [BENZBROMARONE]
IC50 [10]: 0.131 µM (active)

From ChEMBL document CHEMBL1201862, “PubChem BioAssay data set” (2004)
